From patent publication US20080275032A1, “Pyridazinone compounds” (priority 2006, published 2008) come the findings set out here.

Counter-ions that a name gives are not always drawn. A value given as a limit tells only on which side of the number the result lay.

What is called IC50 is the midpoint of a concentration-inhibition curve. Low readings indicate greater potency in that assay, high ones weaker potency in that assay.

Sequence of HCV NS5B polymerase (P26663 2420-3010): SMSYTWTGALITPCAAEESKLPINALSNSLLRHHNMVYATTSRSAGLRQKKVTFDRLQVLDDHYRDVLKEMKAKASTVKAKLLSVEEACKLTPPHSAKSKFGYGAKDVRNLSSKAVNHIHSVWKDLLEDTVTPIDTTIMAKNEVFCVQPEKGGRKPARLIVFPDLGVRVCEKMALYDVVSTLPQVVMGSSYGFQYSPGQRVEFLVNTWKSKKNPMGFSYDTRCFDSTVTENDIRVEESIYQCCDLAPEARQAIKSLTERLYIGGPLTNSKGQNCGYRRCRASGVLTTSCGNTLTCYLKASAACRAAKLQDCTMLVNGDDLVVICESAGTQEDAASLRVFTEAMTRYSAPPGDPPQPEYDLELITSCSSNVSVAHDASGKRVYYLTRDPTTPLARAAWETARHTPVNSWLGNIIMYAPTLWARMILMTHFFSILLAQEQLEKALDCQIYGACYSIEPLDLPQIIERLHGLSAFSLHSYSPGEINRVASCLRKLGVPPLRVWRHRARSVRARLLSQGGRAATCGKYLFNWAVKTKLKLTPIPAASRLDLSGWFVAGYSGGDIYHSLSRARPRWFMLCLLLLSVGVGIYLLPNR

The assay addresses HCV NS5B polymerase (Hepatitis C virus genotype 1b, UniProt P26663). As to the kind of experiment: biochemical. The note with it: HCV polymerase inhibition, 50 nM enzyme, 2 h at room temperature, FlashPlate [α-33P]GTP incorporation. The method, then: NS5B Polymerase Inhibition Assay (IC50)
Compounds were tested for HCV polymerase inhibition. Assays were performed in a 96-well streptavidin-coated FlashPlate using 50 nM enzyme, 0.5 μCi of [α-^33P]GTP, 0.6 μM GTP, and 50 nM 5′biotinylated oligo (rG13)/poly rC in 20 mM Tris-HCl, pH 7.5, 5 mM MgCl2, 20 mM NaCl, 5 mM dithiothreitol, and 0.1 g/L BSA. The reaction was stopped by aspiration after 2 h at room temperature and the plate was washed several times. After washing, incorporated radioactivity was counted using a Microbeta scintillation counter.
The molecule `O=C(NS(=O)(=O)Nc1ccc2c(c1)S(=O)(=O)NC(c1c(O)c(-c3cncs3)nn(CC3CCC3)c1=O)=N2)OCc1ccccc1` [N-[3-(2-Cyclobutylmethyl-5-hydroxy-3-oxo-6-thiazol-5-yl-2,3-dihydro-pyridazin-4-yl)-1,1-dioxo-1,2-dihydro-1λ^6-benzo[1,2,4]thiadiazin-7-yl]-3-carbamic-acid-benzyl-ester-sulfamide] came in with an IC50 of less than 0.1 µM.
In the case of `CS(=O)(=O)Nc1ccc2c(c1)S(=O)(=O)NC(c1c(O)c(-c3cncs3)nn(CC3CCC3)c1=O)=N2` [N-[3-(2-Cyclobutylmethyl-5-hydroxy-3-oxo-6-thiazol-5-yl-2,3-dihydro-pyridazin-4-yl)-1,1-dioxo-1,2-dihydro-1λ^6-benzo[1,2,4]thiadiazin-7-yl]-methanesulfonamide] it was less than 0.1 µM.
With `CS(=O)(=O)Nc1ccc2c(c1)S(=O)(=O)NC(c1c(O)c(-c3cccs3)nn(CC3CCC3)c1=O)=N2` [N-[3-(2-Cyclobutylmethyl-5-hydroxy-3-oxo-6-thiophen-2-yl-2,3-dihydro-pyridazin-4-yl)-1,1-dioxo-1,2-dihydro-1λ^6-benzo[1,2,4]thiadiazin-7-yl]-methanesulfonamide], the 50% inhibitory concentration (IC50) was less than 0.1 µM.
Take `CS(=O)(=O)Nc1ccc2c(c1)S(=O)(=O)NC(c1c(O)c(-c3ccccc3)nn(CC3CC3)c1=O)=N2` [N-[3-(2-Cyclopropylmethyl-5-hydroxy-3-oxo-6-phenyl-2,3-dihydro-pyridazin-4-yl)-1,1-dioxo-1,2-dihydro-1l6-benzo[1,2,4]thiadiazin-7-yl]-methanesulfonamide]: the 50% inhibitory concentration (IC50) lay within 0.1 to 1 µM.
For the molecule `CCC(C)n1nc(-c2cccs2)c(O)c(C2=NS(=O)(=O)c3cc(NS(C)(=O)=O)ccc3N2)c1=O` (stereo not drawn) [N-[3-(2-sec-Butyl-5-hydroxy-3-oxo-6-thiophen-2-yl-2,3-dihydro-pyridazin-4-yl)-1,1-dioxo-1,2-dihydro-1λ^6-benzo[1,2,4]thiadiazin-7-yl]-methanesulfonamide], the IC50 is 0.1 to 1 µM.
`CS(=O)(=O)Nc1ccc2c(c1)S(=O)(=O)NC(c1c(O)c(-c3cccs3)nn(Cc3ccccn3)c1=O)=N2` [N-[3-(5-Hydroxy-3-oxo-2-pyridin-2-ylmethyl-6-thiophen-2-yl-2,3-dihydro-pyridazin-4-yl)-1,1-dioxo-1,2-dihydro-1λ^6-benzo[1,2,4]thiadiazin-7-yl]-methanesulfonamide] yielded an IC50 of less than 0.1 µM.
The figure for `CS(=O)(=O)Nc1ccc2c(c1)S(=O)(=O)N=C(c1c(O)c(-c3cccs3)nn(Cc3ccsc3)c1=O)N2` [N-[3-(5-Hydroxy-3-oxo-6-thiophen-2-yl-2-thiophen-3-ylmethyl-2,3-dihydro-pyridazin-4-yl)-1,1-dioxo-1,2-dihydro-1λ^6-benzo[1,2,4]thiadiazin-7-yl]-methanesulfonamide] is less than 0.1 µM; for `CC(C)CC(C)n1nc(-c2cccs2)c(O)c(C2=NS(=O)(=O)c3cc(NS(C)(=O)=O)ccc3N2)c1=O` (stereo not drawn) [N-{3-[2-(1,3-Dimethyl-butyl)-5-hydroxy-3-oxo-6-thiophen-2-yl-2,3-dihydro-pyridazin-4-yl]-1,1-dioxo-1,2-dihydro-1λ^6-benzo[1,2,4]thiadiazin-7-yl}-methanesulfonamide] it is 0.1 to 1 µM.
As for `CC(C)(C)Cn1nc(-c2cccs2)c(O)c(C2=Nc3ccc(NS(C)(=O)=O)cc3S(=O)(=O)N2)c1=O` [N-{3-[2-(2,2-Dimethyl-propyl)-5-hydroxy-3-oxo-6-thiophen-2-yl-2,3-dihydro-pyridazin-4-yl]-1,1-dioxo-1,2-dihydro-1λ^6-benzo[1,2,4]thiadiazin-7-yl}-methanesulfonamide], the IC50 was less than 0.1 µM.
In the case of `CS(=O)(=O)Nc1ccc2c(c1)S(=O)(=O)N=C(c1c(O)c(-c3cccs3)nn(CCC3CCCCC3)c1=O)N2` [N-{3-[2-(2-Cyclohexyl-ethyl)-5-hydroxy-3-oxo-6-thiophen-2-yl-2,3-dihydro-pyridazin-4-yl]-1,1-dioxo-1,2-dihydro-1λ^6-benzo[1,2,4]thiadiazin-7-yl}-methanesulfonamide] it was 0.1 to 1 µM; in that of `CS(=O)(=O)Nc1ccc2c(c1)S(=O)(=O)N=C(c1c(O)c(-c3cccs3)nn(CCC3CCCC3)c1=O)N2` [N-{3-[2-(2-Cyclopentyl-ethyl)-5-hydroxy-3-oxo-6-thiophen-2-yl-2,3-dihydro-pyridazin-4-yl]-1,1-dioxo-1,2-dihydro-1λ^6-benzo[1,2,4]thiadiazin-7-yl}-methanesulfonamide], less than 0.1 µM; in that of `CS(=O)(=O)Nc1ccc2c(c1)S(=O)(=O)NC(c1c(O)c(-c3cncs3)nn(CCC3CC3)c1=O)=N2` [N-{3-[2-(2-Cyclopropyl-ethyl)-5-hydroxy-3-oxo-6-thiazol-5-yl-2,3-dihydro-pyridazin-4-yl]-1,1-dioxo-1,2-dihydro-1λ^6-benzo[1,2,4]thiadiazin-7-yl}-methanesulfonamide], less than 0.1 µM.
The figure for `CS(=O)(=O)Nc1ccc2c(c1)S(=O)(=O)N=C(c1c(O)c(-c3cccs3)nn(CCC3CC3)c1=O)N2` [N-{3-[2-(2-Cyclopropyl-ethyl)-5-hydroxy-3-oxo-6-thiophen-2-yl-2,3-dihydro-pyridazin-4-yl]-1,1-dioxo-1,2-dihydro-1λ^6-benzo[1,2,4]thiadiazin-7-yl}-methanesulfonamide] is less than 0.1 µM.
In the case of `CS(=O)(=O)Nc1ccc2c(c1)S(=O)(=O)NC(c1c(O)c(-c3ccsc3)nn(CCC3CC3)c1=O)=N2` [N-{3-[2-(2-Cyclopropyl-ethyl)-5-hydroxy-3-oxo-6-thiophen-3-yl-2,3-dihydro-pyridazin-4-yl]-1,1-dioxo-1,2-dihydro-1λ^6-benzo[1,2,4]thiadiazin-7-yl}-methanesulfonamide], the IC50 is less than 0.1 µM.
Molecule `CC(C)=Cc1nn(CCC2CC2)c(=O)c(C2=Nc3ccc(NS(C)(=O)=O)cc3S(=O)(=O)N2)c1O` [N-{3-[2-(2-Cyclopropyl-ethyl)-5-hydroxy-6-(2-methyl-propenyl)-3-oxo-2,3-dihydro-pyridazin-4-yl]-1,1-dioxo-1,2-dihydro-1λ^6-benzo[1,2,4]thiadiazin-7-yl}-methanesulfonamide] yielded an IC50 of less than 0.1 µM.
`CC(C)(C)CCn1nc(-c2cccs2)c(O)c(C2=NS(=O)(=O)c3cc(NS(N)(=O)=O)ccc3N2)c1=O` [N-{3-[2-(3,3-Dimethyl-butyl)-5-hydroxy-3-oxo-6-thiophen-2-yl-2,3-dihydro-pyridazin-4-yl]-1,1-dioxo-1,2-dihydro-1λ^6-benzo[1,2,4]thiadiazin-7-yl}-sulfamide] came in with an IC50 of less than 0.1 µM.
In the case of `CCC(C)(C)CCn1nc(-c2cccs2)c(O)c(C2=NS(=O)(=O)c3cc(NS(C)(=O)=O)ccc3N2)c1=O` [N-{3-[2-(3,3-Dimethyl-pentyl)-5-hydroxy-3-oxo-6-thiophen-2-yl-2,3-dihydro-pyridazin-4-yl]-1,1-dioxo-1,2-dihydro-1λ^6-benzo[1,2,4]thiadiazin-7-yl}-methanesulfonamide] it was less than 0.1 µM; in that of `CC(C)(C)CCn1nc(-c2cccs2)c(O)c(C2=Nc3ccc(NS(C)(=O)=O)cc3S(=O)(=O)N2)c1=O` [N-{3-[2-(3,3-dimethyl-butyl)-5-hydroxy-3-oxo-6-thiophen-2-yl-2,3-dihydro-pyridazin-4-yl]-1,1-dioxo-1,2-dihydro-1λ^6-benzo[1,2,4]thiadiazin-7-yl}-methanesulfonamide, sodium salt], less than 0.1 µM.
The figure for `CS(=O)(=O)Nc1ccc2c(c1)S(=O)(=O)N=C(c1c(O)c(-c3cccs3)nn(Cc3ccc(F)c(Cl)c3)c1=O)N2` [N-{3-[2-(3-Chloro-4-fluoro-benzyl)-5-hydroxy-3-oxo-6-thiophen-2-yl-2,3-dihydro-pyridazin-4-yl]-1,1-dioxo-1,2-dihydro-1λ^6-benzo[1,2,4]thiadiazin-7-yl}-methanesulfonamide] is less than 0.1 µM.
In the case of `CS(=O)(=O)Nc1ccc2c(c1)S(=O)(=O)NC(c1c(O)c(-c3cncs3)nn(Cc3ccc(F)cc3)c1=O)=N2` [N-{3-[2-(4-Fluoro-benzyl)-5-hydroxy-3-oxo-6-thiazol-5-yl-2,3-dihydro-pyridazin-4-yl]-1,1-dioxo-1,2-dihydro-1λ^6-benzo[1,2,4]thiadiazin-7-yl}-methanesulfonamide] it was less than 0.1 µM; in that of `CS(=O)(=O)Nc1ccc2c(c1)S(=O)(=O)N=C(c1c(O)c(-c3cccs3)nn(Cc3ccc(F)cc3)c1=O)N2` [N-{3-[2-(4-Fluoro-benzyl)-5-hydroxy-3-oxo-6-thiophen-2-yl-2,3-dihydro-pyridazin-4-yl]-1,1-dioxo-1,2-dihydro-1λ^6-benzo[1,2,4]thiadiazin-7-yl}-methanesulfonamide], less than 0.1 µM.
On to `CN1C(c2c(O)c(-c3cccs3)nn(Cc3ccc(F)cc3)c2=O)=NS(=O)(=O)c2cc(NS(C)(=O)=O)ccc21` [N-{3-[2-(4-Fluoro-benzyl)-5-hydroxy-3-oxo-6-thiophen-2-yl-2,3-dihydro-pyridazin-4-yl]-4-methyl-1,1-dioxo-1,4-dihydro-1λ^6-benzo[1,2,4]thiadiazin-7-yl}-methanesulfonamide], for which the half-inhibitory concentration (IC50) lay within 1 to 10 µM.
The figure for `CN(c1ccc2c(c1)S(=O)(=O)NC(c1c(O)c(CC(C)(C)C)nn(CC3CCC3)c1=O)=N2)S(C)(=O)=O` [N-{3-[2-Cyclobutylmethyl-6-(2,2-dimethyl-propyl)-5-hydroxy-3-oxo-2,3-dihydro-pyridazin-4-yl]-1,1-dioxo-1,2-dihydro-1λ^6-benzo[1,2,4]thiadiazin-7-yl}-N-methyl-methanesulfonamide] is 1 to 10 µM; for `CCCC(C)n1nc(-c2cccs2)c(O)c(C2=NS(=O)(=O)c3cc(NS(C)(=O)=O)ccc3N2)c1=O` (stereo not drawn) [N-{3-[5-Hydroxy-2-(1-methyl-butyl)-3-oxo-6-thiophen-2-yl-2,3-dihydro-pyridazin-4-yl]-1,1-dioxo-1,2-dihydro-1λ^6-benzo[1,2,4]thiadiazin-7-yl}-methanesulfonamide] it is 0.1 to 1 µM.
